Reference: the Deep4Chem optical property database
Each block holds one molecule with its values, some of them ahead of it.

Experiment: solvent given as SMILES

emission maximum (in CC(C)(C)O): 478 nm
emission maximum (in CC(C)CO): 481 nm
emission maximum (in CC(C)O): 481 nm
emission maximum (in CCCCO): 467 nm
emission maximum (in CCCO): 464 nm
emission maximum (in CCO): 464 nm
emission maximum (in CN(C)C=O): 466 nm
emission maximum (in CNC=O): 450 nm
emission maximum (in CO): 466 nm
emission maximum (in NC=O): 458 nm
emission maximum (in O): 496 nm
Compound: COCCOCCOc1cc(C=O)c(OCCOCCOC)cc1C=O

emission maximum (in ClCCl): 420 nm
Compound: CCOC(=O)c1c(-c2c(Cl)c3cc(C)ccc3oc2=O)nn(-c2cccc(Cl)c2)c1C(=O)OCC

emission maximum (in CCO): 527 nm
Compound: CCOC(=O)c1cc(C(=O)OCC)c2cccc(O)c2n1

emission maximum (in C1CCCCC1): 348 nm
Compound: CC(C)(C)c1ccc2c(c1)Cc1cc(C(C)(C)C)ccc1-2

emission maximum (in CCO): 461 nm
Compound: COc1ccccc1CC(=O)OCc1c(C)c(=O)n2c(=O)c(C)c(C)n12

emission maximum (in CC#N): 527 nm
emission maximum (in CO): 579 nm
Compound: COc1ccc(-c2c(-c3ccc(OC)cc3)c3c4c(cccc4c2-c2ccccc2)C(=O)c2ccccc2-3)cc1

emission maximum (in C1CCCCC1): 390 nm
emission maximum (in CO): 405 nm
Compound: Cc1ccc(/C=C/c2nc3ccccc3s2)cc1

emission maximum (in C1CCOC1): 460 nm
Compound: CC(C)(C)/C=C1\C=C(c2ccccc2)C=C1c1ccccc1

emission maximum (in CC#N): 543 nm
Compound: Cc1ccc2c(nc3c(=O)n(C)c(=O)nc-3n2C)c1C

emission maximum (in CC#N): 446 nm
Compound: COC(=O)c1c(NC(C)(C)C)oc(-c2ccc(-c3ccccc3)cc2)c1C(=O)OC

emission maximum (in CC#N): 413 nm
Compound: C=Cc1cc2ccccc2oc1=O

emission maximum (in C1CCOC1): 497.22 nm
Compound: CCN(CC)c1ccc(-c2nc3c(nc2-c2ccc([B-](F)(c4c(C)cc(C)cc4C)c4c(C)cc(C)cc4C)cc2)c2ccccc2n3C)cc1

emission maximum (in CC#N): 494 nm
Compound: O=C(O)c1ccccc1-c1nc(-c2ccccc2)c2ccccn12

emission maximum (in ClCCl): 521 nm
Compound: C[Si]1(C)O[Si](C)(C)c2cc3c(-c4ccccc4)c4cc([N+](=O)[O-])ccc4nc3cc21

emission maximum (in O): 555 nm
Compound: CC1(C)C(=O)C=Cc2ccc(N3CCC3)cc21

emission maximum (in C1CCCCC1): 418.86 nm
emission maximum (in C1CCOC1): 416.47 nm
emission maximum (in CC#N): 414.88 nm
emission maximum (in CCCCCC): 417.26 nm
emission maximum (in CCO): 416.27 nm
emission maximum (in CN(C)C=O): 417.86 nm
emission maximum (in CO): 418.06 nm
emission maximum (in ClC(Cl)Cl): 417.61 nm
emission maximum (in ClCCl): 417.26 nm
Compound: COc1ccc(-c2cc3ccc4cc(-c5ccc(OC)cc5)cc5ccc(c2)c3c45)cc1

emission maximum (in CC#N): 491 nm
emission maximum (in O): 526 nm
Compound: Nc1nc2ccc(F)cc2[n+]([O-])n1

emission maximum (in ClCCl): 355 nm
Compound: c1ccc2c(c1)c1ccccc1c1ccccc21

More lines, now with the values behind:

Compound: Cc1cc(C)c(B(c2ccc(-c3ccc4ccc5cccc6ccc3c4c56)cc2)c2c(C)cc(C)cc2C)c(C)c1
emission maximum (in Cc1ccccc1): 431 nm

Compound: COc1ccc(-c2csc(-c3ccncc3)n2)cc1
emission maximum (in CC#N): 560 nm
emission maximum (in CCO): 457 nm
emission maximum (in CN(C)C=O): 451 nm
emission maximum (in CS(C)=O): 455 nm
emission maximum (in Cc1ccccc1): 415 nm
emission maximum (in ClCCl): 548 nm

Compound: CCCCCCCCC1(CCCCCCCC)c2cc(-c3ccc(C(F)(F)F)cc3)ccc2-c2ccc(N(c3ccc(-n4c5ccccc5c5ccccc54)cc3)c3ccc4c(c3)C(CCCCCCCC)(CCCCCCCC)c3cc(-c5ccc(C(F)(F)F)cc5)ccc3-4)cc21
emission maximum (in C1CCOC1): 455 nm
emission maximum (in C1COCCO1): 434 nm
emission maximum (in CC#N): 495 nm
emission maximum (in CC(C)=O): 477 nm
emission maximum (in CCCCCC): 416 nm
emission maximum (in CCCCOCCCC): 425 nm
emission maximum (in CCN(CC)CC): 423 nm
emission maximum (in CCOC(C)=O): 450 nm
emission maximum (in CCOCC): 432 nm
emission maximum (in CN(C)C=O): 493 nm
emission maximum (in CS(C)=O): 486 nm
emission maximum (in Cc1ccccc1): 427 nm
emission maximum (in ClC(Cl)Cl): 445 nm
emission maximum (in ClCCl): 465 nm
emission maximum (in c1ccccc1): 428 nm

Compound: Cc1cc(C)c(B(c2c(C)cc(C)cc2C)N2c3ccccc3C3(c4ccccc4-c4ccccc43)c3ccccc32)c(C)c1
emission maximum (in C1CCCCC1): 527 nm
emission maximum (in Cc1ccccc1): 538 nm
emission maximum (in ClCCl): 560 nm

Compound: Cc1cc(C)c(B(c2c(C)cc(C)cc2C)c2c(C)cc(N3c4ccccc4Oc4ccccc43)cc2C)c(C)c1
emission maximum (in Cc1ccccc1): 509 nm
emission maximum (in c1ccc2c(c1)c1ccccc1n2-c1ccc(-c2ccc(-n3c4ccccc4c4ccccc43)cc2)cc1): 504 nm

Compound: N#Cc1ccc2c(c1)C1(c3cc(C#N)ccc3-2)c2ccccc2N(c2ccccc2)c2ccccc21
emission maximum (in Cc1ccccc1): 492.18 nm

Compound: COc1cc(-c2cc(-c3ccccc3)c(-c3ccccc3)c(-c3ccccc3)c2-c2ccccc2)c(OC)cc1-c1ccc(N(C)C)cc1
emission maximum (in ClC(Cl)Cl): 396 nm

Compound: CC(C)(C)c1ccc2c(c1)c1cc(C(C)(C)C)ccc1n2-c1ccc(N(c2ccc(-c3ccc(-c4ccc(-c5ccc(-c6ccc(-c7ccc(N(c8ccc(-n9c%10ccc(C(C)(C)C)cc%10c%10cc(C(C)(C)C)ccc%109)cc8)c8ccc(-n9c%10ccc(C(C)(C)C)cc%10c%10cc(C(C)(C)C)ccc%109)cc8)cc7)s6)s5)s4)s3)cc2)c2ccc(-n3c4ccc(C(C)(C)C)cc4c4cc(C(C)(C)C)ccc43)cc2)cc1
emission maximum (in ClCCl): 529 nm

Compound: COc1cc(OC)cc(C2=[O+][B-](F)(F)OC(c3ccc4ccccc4c3)=C2)c1
emission maximum (in CC#N): 521.21 nm
emission maximum (in CC(C)=O): 521.21 nm
emission maximum (in CCCCCC): 418.89 nm
emission maximum (in Cc1ccccc1): 492.31 nm
emission maximum (in ClCCl): 560 nm

Compound: CC(C)(C)c1ccc(C2=CC(c3ccccc3)=[N+]3C2=Nc2c(-c4ccc(C(C)(C)C)cc4)cc(-c4ccccc4)n2[B-]3(F)F)cc1
emission maximum (in C1CCOC1): 681 nm
emission maximum (in Cc1ccccc1): 683 nm
emission maximum (in ClC(Cl)Cl): 680 nm

Compound: CC(C)c1cccc(C(C)C)c1N1C(=O)c2ccc3cc4c(cc5ccc6c7c(ccc4c57)C(=O)N(c4c(C(C)C)cccc4C(C)C)C6=O)c4ccc(c2c34)C1=O
emission maximum (in ClCCl): 668 nm

Compound: Cc1cc(C)n2c1C=C1c3ccccc3C(c3[nH]c4ccccc4c3C)=[N+]1[B-]2(F)F
emission maximum (in C1CCOC1): 628 nm
emission maximum (in CC#N): 623 nm
emission maximum (in CCCCCC): 626 nm
emission maximum (in CO): 624 nm
emission maximum (in Cc1ccccc1): 636 nm
emission maximum (in ClCCl): 631 nm

Compound: COc1ccc2c(CC(=O)NN)coc2c1
emission maximum (in C1CCOC1): 381 nm
emission maximum (in CC#N): 376 nm
emission maximum (in CC(C)=O): 396 nm
emission maximum (in CCCCO): 384 nm
emission maximum (in CCCO): 396 nm
emission maximum (in CCO): 374 nm
emission maximum (in CCOC(C)=O): 368 nm
emission maximum (in CN(C)C=O): 378 nm
emission maximum (in CO): 378 nm
emission maximum (in ClCCl): 402 nm

Compound: C[N+]1=C(/C=C/C2=C3Oc4c(cc5c6c4CCCN6CCC5)C(c4ccccc4C(=O)O)=C3CCC2)C(C)(C)c2ccccc21
emission maximum (in CC#N): 760 nm
emission maximum (in CCO): 745 nm
emission maximum (in CO): 749 nm
emission maximum (in ClC(Cl)Cl): 757 nm

Compound: COc1ccc2c3c(cccc13)C(=O)c1ccccc1-2
emission maximum (in CC#N): 526.87 nm
emission maximum (in CC(C)=O): 520.02 nm
emission maximum (in CC(C)O): 541.13 nm
emission maximum (in CCCCOCCCC): 487.09 nm
emission maximum (in CCOC(C)=O): 506.07 nm
emission maximum (in CCOCC): 498.01 nm
emission maximum (in CO): 560.85 nm
emission maximum (in Cc1ccccc1): 500 nm
emission maximum (in Clc1ccccc1): 507.87 nm
emission maximum (in N#Cc1ccccc1): 520.02 nm
emission maximum (in O=C1CCCCC1): 520.02 nm

Compound: CC1(C)C(/C=C/C2=C(Oc3ccc(CCN=C=S)cc3Br)C(=C/C=C3/N(CCCS(=O)(=O)[O-])c4ccccc4C3(C)C)/CCC2)=[N+](CCCS(=O)(=O)[O-])c2ccccc21
emission maximum (in CO): 798 nm

Compound: CC(C)c1cccc(C(C)C)c1N1C(=O)c2cc(Cl)c3c4c(Cl)cc5c6c(cc(Cl)c(c7c(Cl)cc(c2c37)C1=O)c64)C(=O)N(c1c(C(C)C)cccc1C(C)C)C5=O
emission maximum (in Cc1ccccc1): 552 nm

Compound: c1ccc2c(c1)Cc1ccccc1N2c1c2ccccc2c(N2c3ccccc3Cc3ccccc32)c2ccccc12
emission maximum (in Cc1ccccc1): 553 nm

Compound: C1=C(c2ccc(-c3cccs3)s2)CCC(c2ccccc2)C1 (configuration not stated)
emission maximum (in C1CCOC1): 412 nm
emission maximum (in CC#N): 411 nm
emission maximum (in CCCCCC): 409 nm
emission maximum (in CCO): 411 nm
emission maximum (in OCCOCCO): 412 nm
emission maximum (in c1ccncc1): 417 nm

Compound: CCC1=C(C)C2=C(C)c3cc(I)cn3[B-](F)(F)[N+]2=C1C
emission maximum (in C1CCCCC1): 532 nm
emission maximum (in CC(C)=O): 532.5 nm
emission maximum (in CCO): 534 nm
emission maximum (in CCOC(C)=O): 531.5 nm
emission maximum (in CO): 533.5 nm
emission maximum (in OCC(F)(F)F): 530.5 nm

Compound: N#Cc1ccc(C#Cc2ncc(-c3ccccc3)o2)cc1
emission maximum (in ClCCl): 410 nm

Compound: c1ccc(-c2ccc(-c3ccc(-c4cc(-c5ccc(-c6ccc(-c7ccccc7)cc6)cc5)cc(-c5ccc(-c6ccc(-c7ccccc7)cc6)cc5)c4)cc3)cc2)cc1
emission maximum (in C1COCCO1): 375 nm

Compound: CCCCOC(=O)c1cc(Oc2ccc(C(C)(C)C)cc2)c2c3c(Cl)cc4c5c(cc(Cl)c(c6c(Oc7ccc(C(C)(C)C)cc7)cc(C(=O)OCCCC)c1c26)c53)C(=O)N(c1c(C(C)C)cccc1C(C)C)C4=O
emission maximum (in Cc1ccccc1): 589 nm

Compound: Cc1cc(C(F)(F)F)nc2c1ccc1nc(-c3ccc(Cl)cc3)cn12
emission maximum (in CC#N): 463 nm
emission maximum (in CCCCCC): 439 nm
emission maximum (in CCCCOC(C)=O): 455 nm
emission maximum (in CCOC(C)=O): 457 nm
emission maximum (in CO): 459 nm
emission maximum (in Cc1ccccc1): 455 nm
emission maximum (in ClC(Cl)Cl): 452 nm
emission maximum (in ClCCl): 455 nm
emission maximum (in c1ccccc1): 455 nm

Compound: Cc1cc(C)c(-c2nnc(-c3ccc(-n4c5ccccc5c5ccccc54)c(C)c3)o2)c(C)c1
emission maximum (in CCO): 440 nm
emission maximum (in Cc1ccccc1): 377 nm

Compound: CN1/C(=C/C=C(/C=C/C2=[N+](C)c3ccccc3C2(C)C)c2ccc(F)cc2)C(C)(C)c2ccccc21
emission maximum (in CCO): 666 nm
emission maximum (in CO): 666 nm
emission maximum (in CS(C)=O): 669 nm
emission maximum (in O): 662 nm
